The numbers were not newly measured in US9353170B2, “Long-acting transient polymer conjugates of exendin” (SANOFI-AVENTIS DEUTSCHLAND GMBH, priority 2007, dated 2016), which cites them from elsewhere.

Where no end group is shown, it is not given here. PEG 2 kDa = polyethylene glycol, 2 kDa

One data set relates to normoglycaemic mice. The following applies: subcutaneous injection.
For data set [1] the following is noted: incubation in a human plasma model.
Another data set concerns db/db mice. The settings on record: 10 μg/mouse subcutaneously.

Consider “N-terminal PEGylation of GLP-1 with only PEG2kDa: GLP-1 N-terminally PEGylated with PEG2kDa (Lee et al. 2005) ({PEG 2 kDa}-HAEGTFTSDVSSYLEGQAAKEFIAWLVKGR; not fully specified (C-terminus); ends and bridges not checked; UniProt P01275 98-127, looked up)”, for which the “activity on stimulating insulin release” value in the data set with rat pancreas islets is on record as “nearly completely abolished”.
Turning to “PEG40 kDa-FMS-exendin-4: transiently PEGylated Exendin-4 based on a traceless FMS-linker (Shechter et al.)”, in the data set with normoglycaemic mice, the “duration of maintained glucose lowering effect” value is on record as 24 h and the glucose lowering effect is on record as 30%.
As for “[2-Sulfo-9-fluorenylmethoxycarbonyl]3-exendin-4 [FMS3-exendin-4]”, the “time at which cleavage is complete” value in data set [1] was 40 h. For the same substance, in the data set with db/db mice, the “sustained reduction in blood glucose” value is on record as 50% and the “time of return of blood glucose to baseline value” is 45 h.
